Laboratory results: patent publication US10993943B2, “Crystalline forms of selinexor and process for their preparation” (WATSON LABORATORIES INC., priority 2017, dated 2021)

Assay: Solubility in aqueous medium (buffers at pH 1.2, 4.5, 6.8)
Assay type: physicochemical
Conditions: Form T8 in comparison with Form A

| solubility in aqueous medium (pH 4.5 (acetate buffer)) | solubility in aqueous medium (pH 6.8 (phosphate buffer)) | solubility in aqueous medium (pH=1.2 (HCl buffer)) | Compound |
| --- | --- | --- | --- |
| practically insoluble | practically insoluble | practically insoluble | O=C(/C=C\n1cnc(-c2cc(C(F)(F)F)cc(C(F)(F)F)c2)n1)NNc1cnccn1 [Form A, (Z)-3-(3-(3,5-bis(trifluoromethyl)phenyl)-1H-1,2,4-triazol-1-yl)-N′-(pyrazin-2-yl) acrylohydrazide] |
| enhanced solubility | enhanced solubility | enhanced solubility | O=C(/C=C\n1cnc(-c2cc(C(F)(F)F)cc(C(F)(F)F)c2)n1)NNc1cnccn1 [Form T8, (Z)-3-(3-(3,5-bis(trifluoromethyl)phenyl)-1H-1,2,4-triazol-1-yl)-N′-(pyrazin-2-yl) acrylohydrazide] |
